Here are results for one compound from PMC12385910, “The Functional Characterization of an AA10 Lytic Polysaccharide Monooxygenase from Saccharophagus degradans 2-40^T for Enhanced Chitin Biodegradation” (Foods, 2025).

The target of this assay is T1, SdLPMO10A (Saccharophagus degradans, UniProt Q21N34).
T1 construct: gene cbpA; AA10 catalytic domain plus CBM2; native signal peptide (24 residues) replaced by pelB, pET-26b(+), E. coli BL21(DE3) periplasm, Ni-NTA purified; N-terminal His25; Cu2+-saturated
T1 sequence (Q21N34 entry or part of it): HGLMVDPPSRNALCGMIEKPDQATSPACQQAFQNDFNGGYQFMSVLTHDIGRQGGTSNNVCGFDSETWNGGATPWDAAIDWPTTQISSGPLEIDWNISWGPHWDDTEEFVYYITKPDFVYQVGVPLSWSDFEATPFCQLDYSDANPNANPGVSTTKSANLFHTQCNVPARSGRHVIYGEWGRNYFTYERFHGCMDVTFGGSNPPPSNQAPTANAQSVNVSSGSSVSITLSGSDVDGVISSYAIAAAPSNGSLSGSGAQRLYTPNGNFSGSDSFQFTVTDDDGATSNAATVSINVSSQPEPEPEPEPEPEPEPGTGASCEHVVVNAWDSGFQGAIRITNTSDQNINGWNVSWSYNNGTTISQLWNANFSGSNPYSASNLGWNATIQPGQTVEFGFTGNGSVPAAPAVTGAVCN
Nature of the assay: MALDI-TOF MS of oxidized chitin oligosaccharides. It counts as biochemical. The conditions noted are these: electron donor, 1 mM; 10 µM Cu2+-saturated enzyme; alpha-chitin; 20 mM Tris-HCl pH 8.0, 30 °C, 48 h.

In the case of `O=C1O[C@H]([C@@H](O)CO)C(O)=C1O` [ascorbic acid], the “MALDI-TOF MS of oxidized chitin oligosaccharides” value was “lacking SdLPMO10A or ascorbic acid, no discernible quantity of oxidized chitin oligosaccharides was generated”.
